Assay results as given in US20050256131A1, “Pharmaceutical active substance combination and the use thereof” (priority 2002, published 2005).
“Also recorded” adds a separate entry of the source.

Assays:
Parkinson's disease = assay: clinical studies / series of tests on parkinsonian patients; type: in vivo, human; conditions: for antidepressant effect in parkinsonian patients: especially those treated in parallel with dopamine-containing medicaments; for necessary dose of dopamine to be taken: parkinsonian patients taking dopamine as supplement; for depot effect / release of the additionally taken dopamine in the patient's body: patients taking dopamine at the same time; for influence of additional intake on the effect of nefazodone or trazodone: taken in addition to nefazodone or trazodone
Protocol: The tablets normally comprise the active substance in an amount of 100 mg or 200 mg. […] For example, if a total dose of 500 mg a day is intended, it is possible to take 200 mg in the morning, 200 mg at midday and 100 mg in the evening.
The medicament with the active substance trazodone was administered to the patients in the evening. […] However, to date, for the aforementioned reasons, the patients have been given the dopamine to be administered in the evening in conjunction with a depot composition.

[1] = cited from earlier work; for side effects affecting the nervous system / psychomotor performance: manufacturer's information for use or statements in the literature

Compound	antidepressant effect in parkinsonian patients (Parkinson's disease)	therapeutic effect in the treatment of the symptoms of Parkinson's disease (Parkinson's disease; parkinsonian patients)	necessary dose of dopamine to be taken (Parkinson's disease)	depot effect / release of the additionally taken dopamine in the patient's body (Parkinson's disease)	influence of additional intake on the effect of nefazodone or trazodone (Parkinson's disease; parkinsonian patients)	side effects affecting the nervous system / psychomotor performance [1]	further results
O=c1n(CCCN2CCN(c3cccc(Cl)c3)CC2)nc2ccccn12 [trazodone, 2-[3-[4-(3-chlorophenyl)-1-piperazinyl]propyl]-1,2,4-triazolo[4,3-a]pyridin-3(2H)-one]	particularly evident	exceptionally good therapeutic effect	reduction in the necessary dose of dopamine	causes a depot effect	–	–	tiredness / sleep-promoting effect after intake (Parkinson's disease; parkinsonian patients): causes a certain tiredness; also recorded: sleep-promoting effect
CC(=O)Oc1ccccc1C(=O)O [acetylsalicylic acid]	–	–	–	–	can also assist the mentioned positive effects of nefazodone	–	–
O=C(O)COCCN1CCN(C(c2ccccc2)c2ccc(Cl)cc2)CC1 (centres unmarked) [cetirizine]	–	particularly good effect	–	–	enhances the effect of the nefazodone or trazodone	reduction in psychomotor performance	central sedative effect ([1]; compared with other antihistamines, statements in the literature): only a slight central sedative effect
CCc1nn(CCCN2CCN(c3cccc(Cl)c3)CC2)c(=O)n1CCOc1ccccc1 [nefazodone, 2-[3-[4-(3-chlorophenyl)-1-piperazinyl]propyl]-5-ethyl-4-(2-phenoxyethyl)-2H-1,2,4-triazol-3(4H)-one]	particularly evident	exceptionally good therapeutic effect	reduction in the necessary dose of dopamine	released more slowly	–	impairments of the coordination of movements (ataxia) and slowing of movements	tolerability (Parkinson's disease; human, in vivo): generally well tolerated; daily dopamine dose as fraction of dose before treatment (Parkinson's disease; one patient with disease in advanced stage): about one third; dopamine dose necessary on additional intake, relative to dose previously necessary on treatment with dopamine alone (Parkinson's disease; parkinsonian patients regularly taking L-dopamine, simultaneous intake of nefazodone): one half or even one third; side effect of dopamine: uncontrolled motor activity in the patient (Parkinson's disease; patients on Parkinson's medicaments comprising dopamine): positively influenced
Cn1c(=O)c2c(ncn2C)n(C)c1=O [caffeine]	–	–	–	–	assists the mentioned positive effect of nefazodone	–	–
